Reference: patent publication US20230150951A1, “2,5- OR 2,6-DISUBSTITUTED HYDROQUINONE DERIVATIVES WITH AT LEAST ONE CARBOXY, SULFO OR AMIDO GROUP USEFUL AS MEDICAMENTS” (OM PHARMA SA, priority 2020, published 2023)
“Also recorded” adds a separate entry of the source.

Experiments:
[1] = Prodrug stability in mouse plasma; format: in vitro ADME; settings: for half-life: read-out: T1/2 (mouse plasma); for remaining after 1 h (mouse plasma): ester cleaved
[2] = Prodrug stability in human plasma; format: in vitro ADME; settings: for half-life: read-out: T1/2 (human plasma)
Stability in DMSO = format: physicochemical
[3] = cited from earlier work
[4] = system: acute pancreatitis murine model; test: Caerulein-induced acute pancreatitis murine model; format: in vivo, Balb/c mice; parameters: Serum IL33 level / Serum TGF-B level: unit not given here
Experimental: Therapeutic efficacy of the compounds according to the present invention was assessed on an acute pancreatitis murine model. Tissue samples were obtained to allow post in-life analysis of pancreatitis parameters. Plasma samples were also obtained to assess animal exposure levels after administration of the compounds.
Animals: A total of 70 female Balb/c mice aged 8-10 weeks weighing approximately 20-25 g were used for the study (Charles River). After 7 days acclimatization, they were allocated into the different groups. […] Cages, bedding, and water were sanitized before use. Animals were provided with Corn-o-cobs enrichment bedding to provide environment enrichment and nesting material. […] The animal holding room were maintained as follows—room temperature at 20-24° C., humidity at 30-70% and a 12 h light/dark cycle used. Although animals used in this study were immuno-competent, preparation of dosing solutions and dosing/weighing of animals were carried out in a sterile biosafety cabinet.
Final formulation was in 5% DMSO, 10% Solutol, 10% PEG400, 75% 0.9% Saline and pH adjusted to 7 with 0.5M NaOH solution.
Final formulation is in 5% DMSO, 10% Solutol, 10% PEG400, 75% 0.9% Saline and pH adjusted to 7 with 0.5M NaOH solution. For per os (PO) dosing IVc-059a is formulated in water. Drug solutions were formulated on the day of dosing.
The purposes of this study were to assess efficacy compounds in an acute pancreatitis model (14 days), generate tissue samples to allow post in-life analysis of pancreatitis parameters and generate four plasma samples to assess animal exposure levels after first and last injection obtained from blood samples taken 1 h and 24 h after first and last injection.
Study Design: On the first study day animals were randomly be assigned to treatment groups, ensuring an equal spread of bodyweight. Mice (except negative control group) were treated with test compounds were given 5 minutes prior to caerulein dosing, followed by injection with caerulein at […] via intraperitoneal route (IP) daily during the study.
Treatment of test compounds were given 5 minutes prior to caerulein dosing.
Sampling and post in-life analyses: at times indicated above a whole blood sample (60 μl) were taken from the lateral tail vein into tubes coated with K2-EDTA. Plasma samples were prepared and stored frozen at −20° C. Plasma samples were sent to client bioanalysis provider Eurofins (FR) for quantification of compound.
Terminal Sampling: Prior to termination animals were weighed. Terminal study animals were culled via CO2 inhalation. A terminal blood sample was taken via cardiac puncture and plasma prepared. Lipase and Amylase activities were measured via ELISA using commercially available ELISA kits. Remaining plasma was stored for future cytokine analyses. Pancreas tissue was resected and weighed, and a section ([…]) snap frozen and analysed for quantification of compound in pancreas sample. A section ([…]) was processed for measurement of MPO activity, IL-33 and TGF-B levels via ELISA. The remainder was fixed in formalin and embedded in paraffin wax. H&E staining was carried out and section assessed using Schmidts standard scoring system, examining: edema, inflammatory infiltration, parenchymal necrosis, haemorrhage. Massons' Trichrome staining was carried out and area covered by fibrotic tissue quantified digitally using QuPath software. Terminal serum samples was used to assess blood chemistry using an IdeXX CHEM15 and LYTE4 clip (4 animals per treatment group).
Histopathology assessment of pancreatic injury based on 4 criteria: Oedema, Inflammatory infiltration, Parenchymal necrosis, Haemorrhage and scored as described below.
Schmidt score is the evaluation of the efficacy of the compounds based on the four histopathology criteria as described in the table below.

[5] = system: bleomycin induced pulmonary fibrosis; test: Bleomycin induced pulmonary fibrosis, 21 days; format: in vivo, mice; settings: day 21; pirfenidone 100 mg/kg, IVc-059a 15 mg/kg
Experimental: A total of 40 male Balb/c mice aged 8-10 weeks were used for the study.
Mice were anesthetized using an IP injection of xylazine and ketamine. Once an appropriate plane of anaesthesia was achieved, animals had 1.0 U/kg bleomycin sulphate instilled via intratracheal route. The total volume of liquid was 50 μL.
Dosing of IV and positive control (pirfenidone) started 24 hours after bleomycin instillation.
Drug solution was formulated immediately prior to dosing. For a dose of 15 mg/kg (enough for 12, 30 g mice) 4.5 mg of compound was weighed out. 75 μl (5%) DMSO added and mixed until drug is in solution. 150 μl (10%) solutol added and vortexed gently, 150 μl (10%) PEG400 added and vortexed gently. 1000 μl PBS (pH7) was added and matrix was measured to ensure pH 7.0 was maintained. Remaining PBS (to a total of 1500 μl) was added. Compound remained in solution. […]
Ashcroft score: Lungs from each animal were FFPE, sectioned and stained with H&E according to an in-house protocol. […] Each lung was scored using the Ashcroft grading system to measure degree of inflammation/fibrosis as per Hubner et al., 2008. […]
An entire lung from each animal was formalin fixed and stored in 70% ethanol. […] Percent area covered by trichrome staining was quantified using Qupath and ImageJ software.

[6] = 1st experiment, caerulein induced, 15 mg/kg IV, Ib-010a and IVc-059a 150 mg/kg PO, Pirfenidone 40 mg/kg IV
[7] = 1st experiment, terminal pancreatic tissue, 15 mg/kg IV, Ib-010a and IVc-059a 150 mg/kg PO, Pirfenidone 40 mg/kg IV
[8] = 1st experiment, terminal serum, 15 mg/kg IV, Ib-010a and IVc-059a 150 mg/kg PO, Pirfenidone 40 mg/kg IV
[9] = second experiment, IV, 15 mg/kg, Pirfenidone 100 mg/kg

SMILES: CC(OC(=O)c1cc(O)cc(CS(=O)(=O)Cc2cc(O)cc(C(=O)OC(C)OC(=O)C(C)(C)C)c2O)c1O)OC(=O)C(C)(C)C (centres unmarked) [IVc-059a-pive2, 3-[[3-[1-(2,2-Dimethylpropanoyloxy)ethoxycarbonyl]-2,5-dihydroxy-phenyl]methyl-sulfonyl-methyl]-2,5-dihydroxy-benzoic acid 1-(2,2-dimethylpropanoyloxy)ethyl ester]
- Stability in mouse plasma (in words) [1]: hydrolyzed rapidly
- Stability in human plasma (in words) [2]: hydrolyzed rapidly

SMILES: CC(C)(C)C(=O)OCOC(=O)c1cc(O)cc(CS(=O)(=O)Cc2cc(O)cc(C(=O)O)c2O)c1O [IVc-059a-pivm1, 2,5-Dihydroxy-3-[[2,5-dihydroxy-3-(2,2-dimethylpropanoyloxymethoxycarbonyl)phenyl]methyl-sulfonylmethyl]benzoic acid]
- Stability in mouse plasma (in words) [1]: hydrolyzed rapidly
- half-life [1]: 6.7 min
- half-life [2]: > 180 min

SMILES: CC(C)(C)C(=O)OCOC(=O)c1cc(O)cc(CS(=O)(=O)Cc2cc(O)cc(C(=O)OCOC(=O)C(C)(C)C)c2O)c1O [IVc-059a-pivm2, 2,2-Dimethylpropanoyloxymethyl 2,5-dihydroxy-3-[[2,5-dihydroxy-3-(2,2-dimethyl-propanoyloxymethoxycarbonyl)phenyl]methylsulfonylmethyl]benzoate]
- Stability in mouse plasma (in words) [1]: hydrolyzed rapidly
- half-life [1]: 14.1 min
- half-life [2]: > 180 min

SMILES: CC(OC(=O)c1cc(NC(=O)c2cc(O)c(C(=O)Nc3ccc(O)c(C(=O)O)c3)cc2O)ccc1O)OC(=O)C(C)(C)C (centres unmarked) [Ic-007a-pive1, 5-[[4-[[3-[1-(2,2-dimethylpropanoyloxy)ethoxycarbonyl]-4-hydroxy-phenyl]carbamoyl]-2,5-dihydroxy-benzoyl]amino]-2-hydroxy-benzoic acid]
- remaining after 1 h (mouse plasma) [1]: 49%
- half-life [1]: 44.6 min
- half-life [2]: > 180 min

SMILES: CC(OC(=O)c1cc(NC(=O)c2cc(O)c(C(=O)Nc3ccc(O)c(C(=O)OC(C)OC(=O)C(C)(C)C)c3)cc2O)ccc1O)OC(=O)C(C)(C)C (centres unmarked) [Ic-007a-pive2, 1-(2,2-dimethylpropanoyloxy)ethyl 5-[[4-[[3-[1-(2,2-dimethylpropanoyloxy)ethoxycarbonyl]-4-hydroxy-phenyl]carbamoyl]-2,5-dihydroxy-benzoyl]amino]-2-hydroxybenzoate]
- remaining after 1 h (mouse plasma) [1]: 65%
- half-life [1]: 62.2 min
- half-life [2]: > 180 min

SMILES: O=C(O)c1cc(O)c(-c2nc3cccc(C(=O)O)c3[nH]2)cc1O [Id-030a, 2-(4-Carboxy-2,5-dihydroxyphenyl)-1H-benzo[d]imidazole-4-carboxylic acid]
- Stability in DMSO (in words) (Stability in DMSO): unstable in DMSO

SMILES: CNC(=O)c1cccc(C(=O)NC)c1O [bis (N-methyl)amide of 2-hydroxyisophthalic acid]
- pKa of phenol [3]: 6.81

SMILES: Cc1ccc(=O)n(-c2ccccc2)c1 [pirfenidone, reference compound]
- Acinar cell necrosis (group mean score) [4, 6]: 0.8
- Haemorrhage (group mean score) [4, 6]: 0.4
- Interstitial oedema (group mean score) [4, 6]: 1.0
- Leukocyte infiltration (group mean score) [4, 6]: 2.0
- Mean terminal BW (% of initial) [4, 6]: 97.6 % of initial
- Mean terminal pancreas weight [4, 6]: 0.136 g
- Pancreas histopathology observations (H&E) [4, 6]: Mild oedema observed; also recorded: Mild haemorrhage observed; also recorded: Mild acinar cell necrosis observed; also recorded: Leukocyte infiltration observed; also recorded: Normal islet morphology observed in areas
- Schmidt Score (H&E) ([4]; 1st experiment, caerulein induced, 15 mg/kg IV, Ib-010a and IVc-059a 150 mg/kg PO, Pirfenidone 40 mg/kg IV, induced + vehicle = 10, non-induced = 0): 4.1
- Pancreas IL33 level [4, 7]: 78 ± 23
- Pancreas MPO activity [4, 7]: 1.26
- Pancreas TGF-B level [4, 7]: 289 ± 170
- Serum IL33 level [4, 8]: 39.16
- Serum TGF-B level [4, 8]: 5.5
- Serum amylase level [4, 8]: 37.71
- Serum lipase level [4, 8]: 7.65
- Amylase [4, 9]: 45.171 mU/mL
- IL-33 [4, 9]: 226 ± 151 ng/mL
- Lipase [4, 9]: 4.541 mU/mL
- MPO [4, 9]: 1.68 ± 0.44 U/mg
- Schmidt Score [4, 9]: 8 ± 1
- TGF-B [4, 9]: 578 ± 230 ng/mL
- Trichome staining (Fibrosis % area) [4, 9]: 1.277 ± 0.888 % area
- Lipase activity in serum ([4]; second experiment, pirfenidone 100 mg/kg, compounds 15 mg/k, vs vehicle treated animals): significantly lower than that in vehicle treated animals
- MPO activity in pancreatic tissue ([4]; second experiment, vs induced vehicle treated controls): significantly lower than induced vehicle treated controls
- Onset of fibrosis in mouse lung (Ashcroft score) [5]: reduced the onset of fibrosis in mouse lung
